Data set [1] deals with T1, human D4 receptor (D4.2 sub-type) (Homo sapiens, UniProt P21917, DEL265-296).
T1 construct: expressed in transfected cells
T1 sequence (P21917 with tags, fused parts or gaps DEL265-296): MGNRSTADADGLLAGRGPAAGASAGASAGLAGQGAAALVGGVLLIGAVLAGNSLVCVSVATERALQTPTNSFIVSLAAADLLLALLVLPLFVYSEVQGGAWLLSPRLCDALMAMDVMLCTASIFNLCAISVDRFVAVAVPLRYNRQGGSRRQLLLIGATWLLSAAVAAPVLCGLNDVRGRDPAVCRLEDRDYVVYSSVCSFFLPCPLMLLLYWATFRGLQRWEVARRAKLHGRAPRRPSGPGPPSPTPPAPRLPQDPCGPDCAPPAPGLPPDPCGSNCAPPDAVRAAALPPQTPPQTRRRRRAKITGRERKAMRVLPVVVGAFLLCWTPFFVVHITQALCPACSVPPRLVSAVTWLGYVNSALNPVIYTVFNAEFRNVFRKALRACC
The data set can be described thus: D4 receptor binding assay (3H-spiperone displacement). The note with it: for Ki: 3H-spiperone 0.25 nM, membranes of HEK 298 cells with human D4.2, Cheng-Prusoff from IC50, read-out: D4 RBA Ki; for inhibition at 1 µM: 1 μM test compound, inhibition of 3H-spiperone binding, read-out: D4 RBA % Inhib. @ 1 μM. How it is done: D4 receptor-binding affinities of the compounds were evaluated according to their ability to reduce binding of ^3H-spiperone as compared to the reference compound clozapine. The potency of the test compound to reduce ^3H-spiperone binding directly correlated to its binding affinity for the receptor.
[…] (human embryonic kidney) cells stably transfected with human D4 receptor (D4.2 sub-type) were grown in NUNC cell factories for 5 days (75% confluency) without a media change and removed with versene (approximately 19 mg of cells per cell factory tray). The cells were then centrifuged in a Sorval centrifuge for 10 min, 5000 rpm (GS3 rotor) and the pellets quickly frozen in liquid nitrogen and stored at −80° C. until used in binding assay. When used in the assay, cells were thawed on ice for 20 min and then 10 mL of incubation buffer (50 mM Tris, 1 mM EDTA, 4 mM MgCl2, 5 mM KCl, 1.5 mM CaCl2, 120 mM NaCl, pH 7.4) was added. The cells were then vortexed to resuspend pellet and homogenized with a Kinematica, CH-6010 Kriens-LU, homogenizer for 15 seconds at setting 7. Concentration of receptor protein was determined using the Pierce BCA assay.
The incubation was started by the addition of 100 μl (50 μg protein) membrane homogenate to a solution of 300 μl incubation buffer and 100 μl (0.25 nM final conc.) ^3H-spiperone (90 Ci/mmol, Amersham, diluted in borosilicate glass vial) in 96-well polypropylene plates (1 mL per well). The plates were vortexed and incubated at room temperature for 90 minutes. The binding reaction was stopped by filtering using a Packard Harvester. The samples were filtered under vacuum over glass fibre filter plates (Whatman GF/B) presoaked for 2 hours in 0.3% polyethylenimine (PEI) in 50 mM Tris buffer (pH 7.4). The filters were then washed 6 times with 7 mL ice cold 50 mM Tris buffer (pH 7.4). The filter plates were dried overnight and 35 μl of Microscint-O (Packard) was added. The plates were sealed and counted in the Packard Top Count (3 minutes per well).
The incubation was started by the addition of 100 μl (50 μg protein) membrane homogenate to a solution of 200 μl incubation buffer, 100 μl ^3H-spiperone (90 Ci/mmol, Amersham, diluted in borosilicate glass vial to 0.25 nM final conc.) and 100 μl (30 μM final conc.) of fresh dopamine (Research Biochemicals Inc., light protected and dissolved in incubation buffer) in 96-well polypropylene plates (1 mL per well). The plates were vortexed and incubated at room temperature for 90 minutes at which time the binding reaction was stopped by filtering. The filters were washed and counted using the same procedure as in the total binding assay described above to give the nonspecific binding value (NSB).
The incubation was started by the addition, in 96-well polypropylene plates (1 mL per well), of 100 μl (50 μg protein) membrane homogenate to a solution of 200 μl incubation buffer, 100 μl (0.25 nM final conc.) ^3H-spiperone (90 Ci/mmol, Amersham, diluted in borosilicate glass vial) and 100 μl of test compound that was prepared from 1 mM stock dissolved in DMSO and stored at −20° C. in polypropylene cryogenic storage vials until dilution in incubation buffer in 96-well polypropylene plates. The plates were vortexed and incubated at room temperature for 90 minutes at which time the binding reaction was stopped by filtering. The filters were washed and counted using the same procedure as in the total binding assay described above to give the displacement binding value (BD).
The test compounds were initially assayed at 1 and 0.1 μM and then at a range of concentrations chosen such that the middle dose would cause about 50% inhibition of ^3H-spiperone binding. Specific binding in the absence of test compound (B0) was the difference of total binding (BT) minus non-specific binding (NSB) and similarly specific binding (in the presence of test compound) (B) was the difference of displacement binding (BD) minus non-specific binding (NSB). […]

The test system of the next data set is MK801 Stereotypy. Nature of the data set: MK-801 Stereotypy in Mice. Format: in vivo. To be noted: Mus musculus, read-out: Antagonism of MK801 Stereotypy % Inhib. @ 20 mg/kg (route). How it is done:
Mk-801 dose-dependently induces characteristic stereotypy marked by locomotion and falling behavior. This MK-801 induced behavior can be antagonized by novel neuroleptic agents. This assay can also assess time course effects following drug administration.
CD-1 or C57 male mice are individually placed in activity boxes (8 mice/drug) and allowed to acclimate for 60 minutes. The mice are then administered test compounds either i.p., s.c., or p.o., at 15, 30, or 60 minutes prior to MK-801 (0.2 mg/kg) administration. Mice are observed for the presence of locomotion and falling behaviors 15 minutes following MK-801. For the duration of action studies the test compounds are administered i.p., s.c., or p.o., at 30, 60, 120, 180, and 240 minutes prior to MK-801 administration.

For data set [2], the target named is human D4 receptor with seven repeat units (D4.7 variant). To be noted: read-out: EC50 of dopamine; cited from earlier work.
Where [3] appears, read: 20 mg/kg ip, mice, MK-801 0.2 mg/kg.
Setting [4] is: 20 mg/kg sc, mice, MK-801 0.2 mg/kg.
The mark [5] stands for this setting: 20 mg/kg po, mice, MK-801 0.2 mg/kg.

As usually defined, the Ki is the equilibrium dissociation constant of an inhibitor or competing ligand from its target. The melting point is the temperature of the solid-liquid transition. By EC50 is commonly meant the concentration giving half of the maximal effect.

Each structure is given as a SMILES string. Structures can show the parent of a compound that is named as a salt. Where two headings read alike, the source gives them in different places.

On to `O[C@H](CNCc1ccsc1)COc1cccc(-c2noc3ccsc23)c1` [Example 9], for which the inhibition constant (Ki) in data set [1] was determined as 7.6 nM. The inhibition in vivo at 20 mg/kg in the data set on MK801 Stereotypy (setting [3]) amounted to 12%.
`Cc1ccc(CNC[C@](C)(O)COc2cccc(-c3noc4ccsc34)c2)cc1` [Example 58, hydrochloride]: the inhibition at 1 µM in data set [1] was 100%. Also, the inhibition in vivo at 20 mg/kg with MK801 Stereotypy (po) was 37.5%.
With `C[C@@](O)(CNCc1ccccc1)COc1cccc(-c2noc3ccsc23)c1` [Compound 4, (2R)-(−)-1-benzylamino-2-methyl-3-(3-thieno[2,3-d]isoxazol-3-yl-phenoxy)propan-2-ol maleate], in data set [1], the Ki turned out to be 37.7 nM. In the data set on MK801 Stereotypy (setting [3]), the inhibition in vivo at 20 mg/kg was 12.5%.
For `C[C@](O)(CNCc1ccccc1)COc1cccc(-c2noc3ccsc23)c1` [Compound 3, (2S)-(+)-1-benzylamino-2-methyl-3-(3-thieno[2,3-d]isoxazol-3-yl-phenoxy)propan-2-ol maleate], in that order: 3.3 nM and 37.5%.
Regarding `C[C@@](O)(CNCc1ccc(F)cc1)COc1cccc(-c2noc3ccsc23)c1` [Example 15], in data set [1], the Ki stood at 11 nM. Besides, the inhibition in vivo at 20 mg/kg in the data set with MK801 Stereotypy (setting [4]) stood at 50%.
Consider `C[C@@](O)(CNCc1cccs1)COc1cccc(-c2noc3ccsc23)c1.O=C(O)/C=C\C(=O)O` [Compound 5, (2R)-2-methyl-1-(3-thieno[2,3-d]isoxazol-3-yl-phenoxy)-3-[thienophen-2-ylmethyl)-amino-propan-2-ol maleate], for which the melting point lay in the range of 51 to 52 °C. The inhibition in vivo at 20 mg/kg in the data set on MK801 Stereotypy (setting [3]) turned out to be 37.5%.
As to `OC(CNC[C@@H](O)COc1cccc(-c2noc3ccsc23)c1)c1ccccc1` (stereo partly drawn) [Example 27], the Ki in data set [1] came to 131 nM. Moreover, in the data set on MK801 Stereotypy (setting [4]), the inhibition in vivo at 20 mg/kg was determined as 75%.
For the molecule `C[C@](O)(CNCc1ccccc1Cl)COc1cccc(-c2noc3ccsc23)c1` [Example 53], in data set [1], the inhibition at 1 µM worked out at 96%. Further, the inhibition in vivo at 20 mg/kg in the data set with MK801 Stereotypy (setting [5]) was found to be 50%.
Turning to `NCCc1ccc(O)c(O)c1` [dopamine], the concentration giving a half-maximal response (EC50) in data set [2] was 40 nM.
In the case of `C[C@](O)(CNCc1ccc(Cl)c(Cl)c1)COc1cccc(-c2noc3ccsc23)c1` [Example 54], the Ki in data set [1] is 13 nM. Also, the inhibition in vivo at 20 mg/kg with MK801 Stereotypy (setting [5]) stood at 62.5%.
On to `O[C@H](CNCc1cccs1)COc1cccc(-c2noc3ccsc23)c1` [Compound 6, (2R)-1-(3-thieno[2,3-d]isoxazol-3-yl-phenoxy)-3-[(thiophen-2-ylmethyl)amino]propan-2-ol L-tartrate], for which the inhibition constant Ki in data set [1] is 12.6 nM. The inhibition in vivo at 20 mg/kg with MK801 Stereotypy (setting [3]) amounted to 25%.

The values above are taken from US7125903B1 (Aventis Pharmaceuticals Inc., priority 1999, dated 2006).
